Patent US5846538A, “Immune reactivity to HER-2/neu protein for diagnosis and treatment of malignancies in which the her-2/neu oncogene is associated” (University of Washington, priority 1995, dated 1998)

Legend:
rat sera = assay: ELISA for peptide epitope analysis of sera of immunized rats; assay type: in vivo; details: sera from rats immunized with ECD peptides
Protocol: One group of rats was immunized with a mixture of extracellular domain (ECD) peptides and one group with a mixture of intracellular domain (ICD) peptides. The final group received adjuvant alone. Peptides were administered at a final concentration of 100 μg each in a total volume of 200 μl. The animals underwent 3 immunizations each 14-16 days apart with either CFA or IFA as adjuvant (Sigma ImmunoChemicals, St. Louis, Mo.). 16 days after the third immunization sera was obtained for assessment of immune response.
96 well Immulon 4 plates (Dynatech Laboratories) were incubated overnight at 4° C. with peptides at a concentration of 10 μg/well diluted in PBS alternating with rows of PBS/1%BSA. After incubation, all wells were blocked with PBS/1%BSA, 100 μl/well for 4 hours at room temperature. The plate was washed with PBS/0.5% Tween. After washing, the plate was incubated with rat sera at the following dilutions: 1:50 and 1:100. The sera was diluted in PBS/1%BSA/1% FBS/25 μg/ml mouse IgG/0.01% NaN3 and then serially into PBS/1%BSA. […] Color reaction was read at an optical density of 640 nm until the reading on the most reactive well reached 0.3 OD. The reaction was stopped with 1N HCl and the optical density was read at 450 nm. The OD of each serum dilution was calculated as the OD of the peptide coated wells minus the OD of the PBS/1%BSA coated wells. […]

[1] = test system: peripheral blood mononuclear cells (PBMC); assay: standard proliferation assay of PBMC (3H-thymidine), CD4+ T cell response; assay type: cell-based, human
PBL = assay: low frequency event screening assay for CD4+ T cell precursors in PBL of normal individuals; assay type: cell-based, human
HLA-A2.1 = target: T1, HLA-A2.1 (Homo sapiens, UniProt P04439, D140Y/D185E/D98H/E176V/E277Q/G131W/G231S/I119V/I121R/I166T/I218V/L300P/L318F/N151K/N90K/P208A/P217A/Q86G/Q94H/R138H/R169H/T345S); assay: class I MHC molecule stabilization assay on T2 cells; assay type: cell-based; details: T2 cells incubated 18 hours with peptide, vs medium alone
T1 construct: T2 without exogenous peptide has low expression of HLA-A2 (30%-50%); endogenous in cells; host or cells: T2 (human T-B cell hybrid)

[2] = breast cancer patient A, HER-2/neu status Negative, tetanus toxoid 5 μg/ml, p185 5 μg/ml, peptides 50 μg/ml, 4 days
[3] = breast cancer patient B, HER-2/neu status Positive, tetanus toxoid 5 μg/ml, p185 5 μg/ml, peptides 50 μg/ml, 4 days
[4] = breast cancer patient C, HER-2/neu status Positive, tetanus toxoid 5 μg/ml, p185 5 μg/ml, peptides 50 μg/ml, 4 days
[5] = breast cancer patient D, HER-2/neu status Positive, tetanus toxoid 5 μg/ml, p185 5 μg/ml, peptides 50 μg/ml, 4 days

Molecule	antibody responses to individual peptides (rat sera)	Stimulation Index (S.I.) [1, 2]	Stimulation Index (S.I.) [1, 3]	Stimulation Index (S.I.) [1, 4]	Stimulation Index (S.I.) [1, 5]	Stimulation Index (S.I.) ([1]; normal individual 1)	Stimulation Index (S.I.) ([1]; normal individual 2)	Stimulation Index (S.I.) ([1]; normal individual 3)	Stimulation Index (S.I.) ([1]; normal individual 4)	Stimulation Index (S.I.) ([1]; normal individual 5)	CD4+ T cell response in low frequency screening (PBL; one normal individual (FIG. 2))	individuals with a proliferative response (PBL; seven normal subjects (4 males, 3 females))	% Increase of class I stabilization on T2 (HLA-A2.1)
TQRCEKCSKPCARVCYGL [p328-345]	substantial responses	–	–	–	–	–	–	–	–	–	–	–	–
Tetanus Toxoid [reference compound]	–	52	36	7	10	6	7	7	10	11	–	–	–
p185: protein product of the HER-2/neu oncogene, partially purified whole protein from SKBR3 cell membranes	–	13	< 2	4	4	2	< 2	< 2	2	2	Positive responses	57%	–
CC(C)C[C@H](NC(=O)[C@H](CCC(N)=O)NC(=O)[C@@H](NC(=O)[C@@H](NC(=O)[C@H](CO)NC(=O)[C@@H](NC(=O)[C@H](CC(C)C)NC(=O)[C@@H](N)CS)[C@@H](C)O)[C@@H](C)O)C(C)C)C(=O)N[C@H](C(=O)O)C(C)C [p789-797]	–	–	–	–	–	–	–	–	–	–	–	–	20%
CC(C)C[C@H](NC(=O)[C@@H](N)Cc1c[nH]cn1)C(=O)N[C@@H](Cc1ccc(O)cc1)C(=O)N[C@@H](CCC(N)=O)C(=O)NCC(=O)N[C@@H](CS)C(=O)N[C@@H](CCC(N)=O)C(=O)N[C@H](C(=O)N[C@H](C(=O)O)C(C)C)C(C)C [p48-56]	–	–	–	–	–	–	–	–	–	–	–	–	20%
